The text below walks through data of PMC3189207, “DomPep—A General Method for Predicting Modular Domain-Mediated Protein-Protein Interactions” (PLoS ONE, 2011).

Usually Kd stands for the equilibrium constant for the complex coming apart.

Like-named read-outs stand apart in the source and are kept apart here. Residues, ends and D or L forms follow the SMILES beside them.

One test deals with T1, Scrib PDZ-2 domain (Homo sapiens, UniProt Q14160).
T1 construct: ROC curves of DomPep prediction for the three Scrib PDZ-1/2/3 domains
T1 sequence (Q14160 862-950 limits assumed): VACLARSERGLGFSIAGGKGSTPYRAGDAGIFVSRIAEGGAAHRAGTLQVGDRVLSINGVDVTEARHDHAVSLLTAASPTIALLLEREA
Briefly: In-solution fluorescence polarization binding of peptides to Scrib PDZ2. A general note: Polarisation of emitted light reports the rotation of a fluorescent probe.

For a further test, the target named is T2, Scrib PDZ-1 domain (Homo sapiens, UniProt Q14160).
T2 construct: ROC curves of DomPep prediction for the three Scrib PDZ-1/2/3 domains
The experiment in a line: In-solution fluorescence polarization binding of peptides to Scrib PDZ1.

Setting [1] is: Kd value of 100 µM applied as binding cutoff, NB without definition, read-out: Kd (µM) PDZ2.
Where [2] appears, read: Kd value of 100 µM applied as binding cutoff, NB without definition, read-out: Kd (µM) PDZ1.

T2 sequence (Q14160 728-815 limits assumed): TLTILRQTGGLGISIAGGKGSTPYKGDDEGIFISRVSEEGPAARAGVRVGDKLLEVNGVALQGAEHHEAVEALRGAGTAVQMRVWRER

With `CC(C)C[C@H](NC(=O)[C@@H](NC(=O)[C@H](CC(N)=O)NC(=O)[C@@H](N)CCCNC(=N)N)[C@@H](C)O)C(=O)N[C@@H](Cc1ccc(O)cc1)C(=O)N[C@@H](Cc1ccccc1)C(=O)N[C@@H](CO)C(=O)N[C@H](C(=O)N[C@@H](CC(=O)O)C(=O)N[C@H](C(=O)O)C(C)C)[C@@H](C)O` [ABR] (H-RNTLYFSTDV-OH), the figures for the Kd on Scrib PDZ-2 domain (setting [1]) and on Scrib PDZ-1 domain (setting [2]) were 10.4 µM and 12.5 µM, respectively. In the case of `CC(C)C[C@H](NC(=O)[C@H](CO)NC(=O)[C@@H](NC(=O)[C@@H](NC(=O)[C@@H](NC(=O)[C@H](Cc1ccccc1)NC(=O)[C@@H](NC(=O)[C@H](CC(=O)O)NC(=O)[C@H](CCC(=O)O)NC(=O)[C@@H]1CCCN1)[C@@H](C)O)[C@@H](C)O)C(C)C)[C@@H](C)O)C(=O)O` [AHDC1] (H-PEDTFTVTSL-OH), the Kd at Scrib PDZ-2 domain (setting [1]) is > 100 µM; at Scrib PDZ-1 domain (setting [2]), 19.2 µM. For `CC(C)C[C@H](NC(=O)[C@H](CO)NC(=O)[C@@H](NC(=O)[C@H](CC(=O)O)NC(=O)[C@@H](NC(=O)[C@H](CC(C)C)NC(=O)[C@H](CCC(N)=O)NC(=O)CNC(=O)[C@@H]1CCCN1C(=O)[C@@H](N)CCC(N)=O)C(C)C)[C@@H](C)O)C(=O)O` [ANKS4B] (H-QPGQLVDTSL-OH) the same measures were > 100 µM and > 100 µM. As for `CC(C)C[C@H](NC(=O)[C@H](Cc1ccc(O)cc1)NC(=O)[C@H](CO)NC(=O)CNC(=O)[C@H](CO)NC(=O)[C@@H](N)Cc1c[nH]cn1)C(=O)N[C@H](C(=O)N[C@H](C(=O)N[C@@H](CO)C(=O)N[C@H](C(=O)O)C(C)C)[C@@H](C)O)C(C)C` [APC] (H-HSGSYLVTSV-OH), the Kd on Scrib PDZ-2 domain (setting [1]) stood at 9.5 µM; on Scrib PDZ-1 domain (setting [2]), 12.3 µM. As to `CC(C)C[C@H](NC(=O)[C@@H]1CCCN1C(=O)[C@@H](NC(=O)[C@H](CCC(=O)O)NC(=O)[C@H](CCCCN)NC(=O)[C@H](CCCCN)NC(=O)[C@H](Cc1ccc(O)cc1)NC(=O)[C@H](CC(N)=O)NC(=O)[C@H](Cc1ccccc1)NC(=O)[C@@H](N)CO)[C@@H](C)O)C(=O)O` [ARD50] (H-SFNYKKETPL-OH), the equilibrium dissociation constant (Kd) was found to be 34.3 µM at Scrib PDZ-2 domain (setting [1]) and 23.6 µM at Scrib PDZ-1 domain (setting [2]). With `CSCC[C@H](N)C(=O)N[C@@H](CCC(=O)O)C(=O)N[C@@H](CCCNC(=N)N)C(=O)N[C@@H](CC(C)C)C(=O)N[C@@H](CCCNC(=N)N)C(=O)N[C@H](C(=O)N[C@@H](CCC(=O)O)C(=O)N[C@H](C(=O)N[C@@H](CC(=O)O)C(=O)N[C@H](C(=O)O)C(C)C)[C@@H](C)O)C(C)C` [ARHGEF16] (H-MERLRVETDV-OH), the results for the dissociation constant (Kd) at Scrib PDZ-2 domain (setting [1]) and on Scrib PDZ-1 domain (setting [2]) were 7.7 µM and 27.5 µM, respectively.

On to `CC(C)C[C@H](NC(=O)[C@@H](NC(=O)CNC(=O)[C@H](CC(N)=O)NC(=O)[C@H](CCCCN)NC(=O)[C@H](CO)NC(=O)[C@H](CC(=O)O)NC(=O)[C@H](Cc1ccc(O)cc1)NC(=O)[C@@H](N)CCCNC(=N)N)[C@@H](C)O)C(=O)N[C@H](C(=O)O)C(C)C` [C11orf52] (H-RYDSKNGTLV-OH), for which the Kd at Scrib PDZ-2 domain (setting [1]) and on Scrib PDZ-1 domain (setting [2]) was > 100 µM in each case. `CC[C@H](C)[C@H](N)C(=O)N[C@@H](CC(C)C)C(=O)N[C@@H](CCCNC(=N)N)C(=O)N[C@@H](CCCCN)C(=O)N[C@@H](CO)C(=O)N[C@H](C(=O)N[C@H](C(=O)N[C@H](C(=O)N[C@H](C(=O)N[C@H](C(=O)O)C(C)C)[C@@H](C)O)[C@@H](C)O)[C@@H](C)O)[C@@H](C)O` [DSC54] (H-ILRKSTTTTV-OH): the Kd at Scrib PDZ-2 domain (setting [1]) and on Scrib PDZ-1 domain (setting [2]) was > 100 µM in each case. For the compound `CSCC[C@H](NC(=O)CNC(=O)[C@H](CC(N)=O)NC(=O)[C@@H](NC(=O)[C@H](CC(C)C)NC(=O)[C@H](CCC(N)=O)NC(=O)[C@@H](N)C(C)C)C(C)C)C(=O)N[C@H](C(=O)N1CCC[C@H]1C(=O)N[C@@H](CC(C)C)C(=O)O)C(C)C` [EPHA5] (H-VQLVNGMVPL-OH), the values for the Kd on Scrib PDZ-2 domain (setting [1]) and on Scrib PDZ-1 domain (setting [2]) were 75.7 µM and > 100 µM, respectively.

In the case of `CC(C)C[C@H](NC(=O)[C@H](CS)NC(=O)[C@H](Cc1c[nH]cn1)NC(=O)[C@H](CC(C)C)NC(=O)[C@H](C)NC(=O)[C@H](CCC(=O)O)NC(=O)[C@H](CC(C)C)NC(=O)[C@H](CCC(=O)O)NC(=O)[C@@H]1CCCN1C(=O)[C@@H](N)CC(=O)O)C(=O)O` [EPHA8] (H-DPELEALHCL-OH), the results for the dissociation constant (Kd) on Scrib PDZ-2 domain (setting [1]) and on Scrib PDZ-1 domain (setting [2]) were 24.9 µM and > 100 µM, respectively. On the same counts, the results for `CC(C)C[C@H](NC(=O)[C@H](CO)NC(=O)[C@@H](NC(=O)[C@H](CCC(=O)O)NC(=O)[C@H](CCC(=O)O)NC(=O)[C@H](CS)NC(=O)[C@@H](NC(=O)[C@H](CCCNC(=N)N)NC(=O)[C@@H](NC(=O)[C@@H]1CCCN1)C(C)C)C(C)C)[C@@H](C)O)C(=O)O` [FAM105B] (H-PVRVCEETSL-OH) are 17.6 µM and 1.9 µM. With `CC[C@H](C)[C@H](NC(=O)[C@H](CC(C)C)NC(=O)[C@H](CCC(N)=O)NC(=O)[C@H](CCSC)NC(=O)[C@H](CC(N)=O)NC(=O)[C@H](Cc1ccccc1)NC(=O)[C@@H](N)CO)C(=O)N[C@@H](CO)C(=O)N[C@@H](CCC(N)=O)C(=O)N[C@H](C(=O)O)C(C)C` [FAM126B] (H-SFNMQLISQV-OH), the Kd on Scrib PDZ-2 domain (setting [1]) and on Scrib PDZ-1 domain (setting [2]) was > 100 µM throughout. For the compound `CC(C)C[C@H](NC(=O)[C@@H](N)C(C)C)C(=O)N[C@@H](Cc1ccc(O)cc1)C(=O)N1CCC[C@H]1C(=O)N[C@@H](CCCNC(=N)N)C(=O)N[C@@H](CCC(=O)O)C(=O)NCC(=O)N[C@H](C(=O)N[C@@H](CCC(=O)O)C(=O)N[C@H](C(=O)O)C(C)C)[C@@H](C)O` [FOXl1] (H-VLYPREGTEV-OH), the Kd on Scrib PDZ-2 domain (setting [1]) is 24.7 µM; on Scrib PDZ-1 domain (setting [2]) it was > 100 µM. `CSCC[C@H](NC(=O)[C@H](CC(C)C)NC(=O)[C@@H](NC(=O)[C@H](C)NC(=O)[C@H](CCSC)NC(=O)[C@H](CCCCN)NC(=O)[C@H](CC(N)=O)NC(=O)[C@@H]1CCCN1C(=O)[C@H](CC(N)=O)NC(=O)[C@@H](N)CC(C)C)[C@@H](C)O)C(=O)O` [GLO1] (H-LNPNKMATLM-OH): the Kd on Scrib PDZ-2 domain (read-out: Kd (µM) PDZ2, Kd value of 100 µM applied as binding cutoff, NB without definition) is > 100 µM; at Scrib PDZ-1 domain (read-out: Kd (µM) PDZ1, Kd value of 100 µM applied as binding cutoff, NB without definition) it was > 100 µM. Consider `CSCC[C@H](NC(=O)[C@H](CCCNC(=N)N)NC(=O)[C@H](CCCCN)NC(=O)[C@H](CCC(=O)O)NC(=O)[C@H](C)NC(=O)[C@@H](N)Cc1ccc(O)cc1)C(=O)N[C@@H](CC(C)C)C(=O)N[C@H](C(=O)N[C@@H](CCC(=O)O)C(=O)N[C@H](C(=O)O)C(C)C)[C@@H](C)O` [KCNA6] (H-YAEKRMLTEV-OH), for which the Kd on Scrib PDZ-2 domain (setting [1]) and at Scrib PDZ-1 domain (setting [2]) was > 100 µM throughout. Consider `CC[C@H](C)[C@H](NC(=O)[C@H](CCCNC(=N)N)NC(=O)[C@@H](NC(=O)[C@H](CO)NC(=O)[C@H](CC(C)C)NC(=O)[C@H](C)NC(=O)[C@@H](N)CO)C(C)C)C(=O)N[C@@H](CO)C(=O)N[C@@H](CC(N)=O)C(=O)N[C@H](C(=O)O)C(C)C` [KCNJ10] (H-SALSVRISNV-OH), for which the equilibrium dissociation constant (Kd) on Scrib PDZ-2 domain (setting [1]) and on Scrib PDZ-1 domain (setting [2]) was > 100 µM each time.

Regarding `CC(C)C[C@H](NC(=O)[C@H](CCCNC(=N)N)NC(=O)[C@@H]1CCCN1C(=O)[C@H](Cc1c[nH]cn1)NC(=O)[C@H](CO)NC(=O)[C@@H]1CCCN1)C(=O)N[C@@H](CCC(N)=O)C(=O)N[C@H](C(=O)N[C@@H](Cc1c[nH]cn1)C(=O)N[C@H](C(=O)O)C(C)C)[C@@H](C)O` [KIRREL2] (H-PSHPRLQTHV-OH), the Kd on Scrib PDZ-2 domain (setting [1]) and at Scrib PDZ-1 domain (setting [2]) was > 100 µM throughout. With `CC(C)C[C@H](NC(=O)[C@H](CC(=O)O)NC(=O)[C@@H](NC(=O)[C@H](CO)NC(=O)[C@H](C)NC(=O)[C@H](CCCCN)NC(=O)[C@H](C)NC(=O)[C@@H](NC(=O)[C@H](CC(C)C)NC(=O)[C@@H](N)C(C)C)[C@@H](C)O)[C@@H](C)O)C(=O)O` [LPP] (H-VLTAKASTDL-OH), the dissociation constant (Kd) is > 100 µM at Scrib PDZ-2 domain (setting [1]) and 24.2 µM on Scrib PDZ-1 domain (setting [2]).

With `CC(C)C[C@H](NC(=O)[C@@H]1CCCN1C(=O)[C@@H](NC(=O)[C@H](CCC(=O)O)NC(=O)[C@H](CCCCN)NC(=O)[C@H](CO)NC(=O)[C@@H](NC(=O)[C@H](CCCNC(=N)N)NC(=O)[C@H](C)NC(=O)CN)C(C)C)[C@@H](C)O)C(=O)O` [MAPK12] (H-GARVSKETPL-OH), the Kd on Scrib PDZ-2 domain (setting [1]) was found to be 56.1 µM; at Scrib PDZ-1 domain (setting [2]), 20.3 µM. On the same counts, the results for `CC[C@H](C)[C@H](NC(=O)[C@H](CCCNC(=N)N)NC(=O)[C@@H](NC(=O)[C@H](CCCNC(=N)N)NC(=O)[C@H](CO)NC(=O)[C@H](C)NC(=O)[C@@H](N)CC(N)=O)[C@@H](C)O)C(=O)N[C@H](C(=O)N[C@@H](Cc1ccccc1)C(=O)N[C@H](C(=O)O)C(C)C)[C@@H](C)O` [MCM7] (H-NASRTRITFV-OH) are > 100 µM and > 100 µM. `CC[C@H](C)[C@H](NC(=O)[C@@H]1CCCN1C(=O)[C@H](Cc1c[nH]cn1)NC(=O)[C@@H](NC(=O)[C@@H](N)Cc1ccccc1)C(C)C)C(=O)N[C@@H](CC(C)C)C(=O)N[C@@H](CCC(N)=O)C(=O)N[C@@H](CO)C(=O)N[C@@H](C)C(=O)N[C@H](C(=O)O)C(C)C` [PRKCA] (H-FVHPILQSAV-OH): the dissociation constant (Kd) worked out at 46 µM on Scrib PDZ-2 domain (setting [1]) and 17.4 µM at Scrib PDZ-1 domain (setting [2]). As to `CC(C)[C@H](NC(=O)[C@H](CO)NC(=O)[C@@H](NC(=O)[C@@H](NC(=O)[C@@H](NC(=O)[C@H](CCCNC(=N)N)NC(=O)[C@@H](NC(=O)[C@H](CCCCN)NC(=O)[C@H](C)NC(=O)[C@@H](N)CO)C(C)C)[C@@H](C)O)C(C)C)[C@@H](C)O)C(=O)O` [RASL11B] (H-SAKVRTVTSV-OH), the Kd at Scrib PDZ-2 domain (setting [1]) and at Scrib PDZ-1 domain (setting [2]) was > 100 µM each time.

`CSCC[C@H](NC(=O)[C@@H](N)C(C)C)C(=O)N[C@@H](CCCNC(=N)N)C(=O)N[C@@H](CC(C)C)C(=O)N[C@@H](CCC(N)=O)C(=O)N[C@@H](CO)C(=O)N[C@@H](CCC(=O)O)C(=O)N[C@H](C(=O)N[C@@H](CO)C(=O)N[C@H](C(=O)O)C(C)C)[C@@H](C)O` [VANGL2] (H-VMRLQSETSV-OH): the Kd on Scrib PDZ-1 domain (setting [2]) was 21.6 µM.
